Laboratory results as given in patent publication US20260297060A1, “COMPOUNDS FOR THE DEGRADATION OF MUTANT BRAF” (C4 THERAPEUTICS, INC., priority 2023, published 2026).
Where two headings read alike, the source gives them in different places.

Key:
[1] = molecular target: T1, human bile salt export pump (BSEP) efflux transporter (Homo sapiens, UniProt O95342); assay: BSEP Vesicular Transport Inhibition Assay (IC50 determination); format: biochemical; conditions: human BSEP (HEK293) vesicles; taurocholate 0.2 μM; 4 mM Mg-ATP; 10 concentrations, 1 replicate; in nM
T1 construct: purchased SOLVO Biotechnology Charles River Laboratories, Szeged, Hungary; host or cells: HEK293 (inside out membrane vesicles)
Procedure, shortened: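 Inside-out membrane vesicles from HEK293 cells expressing human BSEP were incubated with taurocholate probe substrate and compound (10 concentrations, single replicate) with 4 mM Mg-ATP, or 4 mM AMP for background, for 5 min at 37 °C. Vesicle-trapped substrate was quantified by liquid scintillation counting after filtration.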

[2] = Example 6 pharmacokinetics assay for efficacy study (plasma, liver); format: in vivo, BALB/c nude mice; conditions: mouse, po, p.o., QD × 21 days
Protocol: For efficacy study, compounds were tested in the A375 human melanoma xenografts. Known BRAF inhibitors encorafenib, and dabrafenib were used as positive controls. Encorafenib and dabrafenib were administered to BALB/c nude mice bearing A375 tumors on PG-D1 and dosed PO daily (QD) for 3 weeks. Encorafenib was dosed at 35 mg/kg. Dabrafenib was dosed at 100 mg/kg. Compound 83, Compound 93, Compound 70, and Compound 54 were administered to BALB/c nude mice bearing A375 tumors on PG-DO and dosed PO twice per day (BID) for 3 weeks. Compound 83, Compound 93, Compound 70, and Compound 54 were dosed at 10 mg/kg.
The plasma samples were collected at predetermined time points for PK analysis. The mice were euthanized at predetermined time points post the treatment. The blood samples were collected into the 1.5 mL Eppendorf tubes containing 15 μL of 0.5 M EDTA-K2. And then the anticoagulant blood samples were centrifuged at 2,500 g at 4° C. for 15 minutes. The plasma samples were separated into 2 aliquots. The 1st was used for PK analysis, and the 2nd served as backup. The samples were stored at −80° C. before bioanalysis.
Liver samples were collected at predetermined time points for PK analysis. The left lobe of the liver was dissected out and split into 2 parts. The 1st part was used for PK analysis and the 2nd part served as the backup for the study. The samples were transferred into pre-labeled tubes and quickly froze in liquid nitrogen within 2 minutes after dissection. The samples were stored at −80° C. before bioanalysis.
For efficacy study, the harvested plasma and liver were processed for pharmacokinetics analysis by LC/MS/MS with a concentration range of 2.00-2000 ng/mL for Encorafenib and Dabrafenib in plasma, 0.20-200 ng/mL for Encorafenib and Dabrafenib in liver, 50.0-50000 ng/mL for compound 83 and compound 70 in plasma, 20.0-20000 ng/mL for Compound 93 and Compound 54 in plasma, 5.00-5000 ng/mL for compound 93, compound 83, compound 70 and compound 54 in liver.

T1 sequence (O95342 whole entry): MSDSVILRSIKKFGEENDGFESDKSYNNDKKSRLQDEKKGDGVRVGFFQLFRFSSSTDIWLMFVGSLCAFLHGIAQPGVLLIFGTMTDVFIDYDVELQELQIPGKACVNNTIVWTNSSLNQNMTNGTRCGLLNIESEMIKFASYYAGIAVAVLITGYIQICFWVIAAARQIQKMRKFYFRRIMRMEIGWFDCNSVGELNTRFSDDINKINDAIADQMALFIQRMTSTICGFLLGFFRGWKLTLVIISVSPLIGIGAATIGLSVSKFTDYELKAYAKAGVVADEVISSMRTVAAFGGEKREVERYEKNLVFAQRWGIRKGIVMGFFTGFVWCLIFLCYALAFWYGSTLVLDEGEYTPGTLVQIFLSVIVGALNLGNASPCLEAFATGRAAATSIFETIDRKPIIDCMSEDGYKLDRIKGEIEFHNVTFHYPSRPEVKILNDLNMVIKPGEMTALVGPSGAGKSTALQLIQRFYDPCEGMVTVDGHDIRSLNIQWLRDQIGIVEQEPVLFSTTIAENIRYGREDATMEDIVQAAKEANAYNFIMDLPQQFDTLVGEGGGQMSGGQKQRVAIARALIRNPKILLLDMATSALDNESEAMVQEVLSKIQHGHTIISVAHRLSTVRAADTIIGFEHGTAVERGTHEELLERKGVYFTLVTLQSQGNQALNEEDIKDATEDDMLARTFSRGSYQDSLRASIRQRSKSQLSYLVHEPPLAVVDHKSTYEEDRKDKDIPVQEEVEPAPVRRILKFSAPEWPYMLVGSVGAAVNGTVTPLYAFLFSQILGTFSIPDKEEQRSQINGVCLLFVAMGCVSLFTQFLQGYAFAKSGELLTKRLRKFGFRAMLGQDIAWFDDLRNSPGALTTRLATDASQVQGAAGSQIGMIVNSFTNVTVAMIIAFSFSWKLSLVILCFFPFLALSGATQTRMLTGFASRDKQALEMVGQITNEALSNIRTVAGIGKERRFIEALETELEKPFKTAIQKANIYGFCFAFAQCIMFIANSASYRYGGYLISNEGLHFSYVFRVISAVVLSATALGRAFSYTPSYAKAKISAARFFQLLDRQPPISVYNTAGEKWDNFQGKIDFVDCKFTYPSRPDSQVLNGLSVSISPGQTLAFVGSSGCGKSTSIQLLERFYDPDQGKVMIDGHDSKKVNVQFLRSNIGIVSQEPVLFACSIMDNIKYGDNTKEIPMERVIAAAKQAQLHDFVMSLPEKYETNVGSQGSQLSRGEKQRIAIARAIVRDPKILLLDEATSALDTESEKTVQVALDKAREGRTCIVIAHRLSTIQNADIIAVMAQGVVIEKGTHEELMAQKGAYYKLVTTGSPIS

CO[C@@H]1CCN(S(=O)(=O)Nc2ccc(F)c(Oc3ccc4ncn(C5CC6(CCN(C7CC8(C7)CN(c7cc9c(cc7F)c(N7CCC(=O)NC7=O)nn9C)C8)CC6)C5)c(=O)c4c3)c2C#N)C1 (stereo partly drawn) [Compound 269, (3R)-N-[2-cyano-3-[3-[7-[2-[3-(2,4-dioxohexahydropyrimidin-1-yl)-5-fluoro-1-methyl-indazol-6-yl]-2-azaspiro[3.3]heptan-6-yl]-7-azaspiro[3.5]nonan-2-yl]-4-oxo-quinazolin-6-yl]oxy-4-fluoro-phenyl]-3-methoxy-pyrrolidine-1-sulfonamide]
BSEP Inhibition/IC50 [1]: >40000

COC1CN(S(=O)(=O)Nc2ccc(F)c(Oc3ccc4ncn(C5CC6(CCN(C7CC8(C7)CN(c7cc9c(cc7F)c(N7CCC(=O)NC7=O)nn9C)C8)CC6)C5)c(=O)c4c3)c2C#N)C1 (stereo not drawn) [Compound 280, N-[2-cyano-3-[3-[7-[2-[3-(2,4-dioxohexahydropyrimidin-1-yl)-5-fluoro-1-methyl-indazol-6-yl]-2-azaspiro[3.3]heptan-6-yl]-7-azaspiro[3.5]nonan-2-yl]-4-oxo-quinazolin-6-yl]oxy-4-fluoro-phenyl]-3-methoxy-azetidine-1-sulfonamide]
BSEP Inhibition/IC50 [1]: 26550

CC(C)(C)c1nc(-c2cccc(NS(=O)(=O)c3c(F)cccc3F)c2F)c(-c2ccnc(N)n2)s1 [Dabrafenib, dabrafenib, reference compound]
concentration at 6 h ([2]; liver, 100 mg/kg, read-out: Concentration in Liver (mean ± SEM)): 216 ± 30.8 ng/g | concentration at 6 h ([2]; plasma, 100 mg/kg, read-out: Concentration in Plasma (mean ± SEM)): 86.1 ± 15.4 ng/mL

COC(=O)N[C@@H](C)CNc1nccc(-c2cn(C(C)C)nc2-c2cc(Cl)cc(NS(C)(=O)=O)c2F)n1 [Encorafenib, encorafenib, reference compound]
concentration at 6 h ([2]; liver, 35 mg/kg, read-out: Concentration in Liver (mean ± SEM)): 481 ± 272 ng/g | concentration at 6 h ([2]; plasma, 35 mg/kg, read-out: Concentration in Plasma (mean ± SEM)): 992 ± 559 ng/mL
